This is an account of results in PMC5293562, “Engineering a trifunctional proline utilization A chimaera by fusing a DNA-binding domain to a bifunctional PutA” (Bioscience Reports, 2016).

One series concerns T1, EcRHH–RcPutA.
T1 construct: gene putA; single polypeptide: E. coli PutA RHH domain (residues 1-52) fused via NdeI linker to N-terminus of full-length R. capsulatus PutA; 1180 aa; N-terminal His6 tag retained; pET28a, E. coli BL21(DE3) pLysS; homodimer, 126 kDa monomer
Nature of the series: stopped-flow, CoQ1 reduction at […] nm. The settings on record: 50 mM potassium phosphate pH 7.5, 25 mM NaCl, 23°C. It is filed as biochemical, Rhodobacter capsulatus.

A further series deals with T2, EcPutA (Escherichia coli, UniProt P09546).
T2 construct: gene putA
T2 sequence (P09546 whole entry): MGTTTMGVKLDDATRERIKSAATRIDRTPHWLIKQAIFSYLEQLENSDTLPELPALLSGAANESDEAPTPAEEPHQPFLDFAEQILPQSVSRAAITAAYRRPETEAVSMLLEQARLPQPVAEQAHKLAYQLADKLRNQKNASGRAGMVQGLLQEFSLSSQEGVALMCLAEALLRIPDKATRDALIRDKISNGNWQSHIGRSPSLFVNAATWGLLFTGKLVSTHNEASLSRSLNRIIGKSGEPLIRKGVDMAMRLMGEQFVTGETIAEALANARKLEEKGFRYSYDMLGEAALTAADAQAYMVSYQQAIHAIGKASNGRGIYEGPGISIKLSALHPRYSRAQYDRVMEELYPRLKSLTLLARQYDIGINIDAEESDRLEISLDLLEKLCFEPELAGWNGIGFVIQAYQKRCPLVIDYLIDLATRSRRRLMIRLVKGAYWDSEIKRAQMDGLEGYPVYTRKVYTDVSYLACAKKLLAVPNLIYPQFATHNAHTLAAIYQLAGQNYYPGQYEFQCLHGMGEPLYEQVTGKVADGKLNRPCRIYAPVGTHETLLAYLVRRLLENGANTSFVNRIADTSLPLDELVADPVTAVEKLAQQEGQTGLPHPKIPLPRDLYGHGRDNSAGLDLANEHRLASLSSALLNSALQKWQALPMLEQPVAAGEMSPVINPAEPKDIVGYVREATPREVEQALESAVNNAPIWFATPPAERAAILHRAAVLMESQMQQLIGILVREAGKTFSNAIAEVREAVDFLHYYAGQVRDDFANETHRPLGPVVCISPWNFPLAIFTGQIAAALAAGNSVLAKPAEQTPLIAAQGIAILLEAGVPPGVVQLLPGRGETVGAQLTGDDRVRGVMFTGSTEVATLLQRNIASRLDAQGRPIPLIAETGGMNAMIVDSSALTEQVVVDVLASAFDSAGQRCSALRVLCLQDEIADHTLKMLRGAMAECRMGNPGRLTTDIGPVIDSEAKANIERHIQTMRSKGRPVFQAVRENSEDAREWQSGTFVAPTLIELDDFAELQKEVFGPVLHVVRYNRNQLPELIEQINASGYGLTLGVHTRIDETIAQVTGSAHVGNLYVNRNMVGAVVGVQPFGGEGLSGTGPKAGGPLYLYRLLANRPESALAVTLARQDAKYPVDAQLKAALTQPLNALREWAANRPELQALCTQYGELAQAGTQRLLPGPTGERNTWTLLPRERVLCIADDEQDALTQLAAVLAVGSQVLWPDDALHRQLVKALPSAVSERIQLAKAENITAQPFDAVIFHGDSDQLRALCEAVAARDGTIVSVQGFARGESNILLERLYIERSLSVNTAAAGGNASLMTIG
The note with it: 50 mM proline reduces flavin; anaerobic; HEPES pH 7.5, 150 mM NaCl; room temperature.

The next series concerns the target T3, RcPutA (Rhodobacter capsulatus, UniProt D5AN87).
T3 construct: gene putA
The settings on record: 50 mM proline reduces flavin; anaerobic; HEPES pH 7.5, 150 mM NaCl; room temperature.

In series [1] the target is EcRHH–RcPutA chimaera (RHH domain of Escherichia coli PutA fused to the N-terminus of Rhodobacter capsulatus PutA) (Escherichia coli | Rhodobacter capsulatus) (UniProt P09546). Nature of the series: AUC; sedimentation equilibrium, 0.2, 0.5 and 0.8 mg/ml, 8000 rpm, 50 mM Tris pH 7.5, 100 mM NaCl, 0.5 mM EDTA, 5% glycerol; global fit to an ideal single-species model.
For series [2] the target is unchanged. Put plainly: SAXS; three protein concentrations after size exclusion chromatography in 50 mM Tris, 200 mM NaCl, 0.5 mM THP, pH 7.5; mass from volume of correlation and Porod-Debye analysis; shape reconstruction with 2-fold symmetry. (Size exclusion chromatography separates by hydrodynamic size, large species first.)
In series [3] the test system is EcRHH-RcPutA chimaera (Escherichia coli / Rhodobacter capsulatus (chimaera)). Nature of the series: EMSA. The settings on record: EMSA with 3 nM IRdye-700 put control DNA, 100 ug/ml calf thymus DNA, non-denaturing 4% polyacrylamide gel; binding buffer, salt, pH and temperature not given …. (In general: A gel shift assay detects complexes by their altered migration in electrophoresis.)

Read-outs that look alike come from different tables or passages of the source.

Sequence of EcRHH–RcPutA chimaera (RHH domain of Escherichia coli PutA fused to the N-terminus of Rhodobacter capsulatus PutA) (P09546 whole entry, the tested form may be a part): as the sequence (P09546 whole entry) above
T3 sequence (D5AN87 1-1127): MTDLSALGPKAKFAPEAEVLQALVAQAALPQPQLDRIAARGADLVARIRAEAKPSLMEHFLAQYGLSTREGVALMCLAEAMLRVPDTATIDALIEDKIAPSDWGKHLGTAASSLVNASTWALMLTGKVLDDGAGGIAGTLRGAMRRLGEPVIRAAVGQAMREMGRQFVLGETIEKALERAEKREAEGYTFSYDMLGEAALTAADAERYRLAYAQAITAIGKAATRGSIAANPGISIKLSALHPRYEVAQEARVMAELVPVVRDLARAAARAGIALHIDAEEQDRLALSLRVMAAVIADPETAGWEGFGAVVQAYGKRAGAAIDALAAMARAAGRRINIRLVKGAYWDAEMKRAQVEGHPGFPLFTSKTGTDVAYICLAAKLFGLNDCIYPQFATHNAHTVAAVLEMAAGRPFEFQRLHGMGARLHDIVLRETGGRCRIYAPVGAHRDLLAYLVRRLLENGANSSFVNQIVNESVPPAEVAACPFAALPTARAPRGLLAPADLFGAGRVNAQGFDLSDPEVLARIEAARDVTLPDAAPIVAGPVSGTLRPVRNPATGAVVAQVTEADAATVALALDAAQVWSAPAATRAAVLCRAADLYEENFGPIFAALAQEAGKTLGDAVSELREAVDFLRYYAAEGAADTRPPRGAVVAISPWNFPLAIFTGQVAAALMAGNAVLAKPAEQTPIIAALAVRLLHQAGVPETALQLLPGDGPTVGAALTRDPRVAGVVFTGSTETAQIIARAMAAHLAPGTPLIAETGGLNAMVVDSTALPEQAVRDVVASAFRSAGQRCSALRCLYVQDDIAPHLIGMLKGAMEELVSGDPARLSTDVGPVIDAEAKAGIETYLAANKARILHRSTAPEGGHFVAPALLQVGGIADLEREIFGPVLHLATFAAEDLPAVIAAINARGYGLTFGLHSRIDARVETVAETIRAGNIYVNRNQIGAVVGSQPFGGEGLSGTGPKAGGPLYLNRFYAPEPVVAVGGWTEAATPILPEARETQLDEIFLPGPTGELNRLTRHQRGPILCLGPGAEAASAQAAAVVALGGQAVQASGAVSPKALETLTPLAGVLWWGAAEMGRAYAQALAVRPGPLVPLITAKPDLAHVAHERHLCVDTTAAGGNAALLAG

As to `COC1=C(OC)C(=O)C(CC=C(C)C)=C(C)C1=O` [CoQ1], in the series with EcRHH–RcPutA (PRODH electron acceptor, 200 mM proline, read-out: Proline / Km), the Km is 161 ± 15.8 µM.

With `O=C(O)[C@@H]1CCCN1` [proline], the “lipid pull-down (E. coli polar lipid vesicles), SDS/PAGE” value at EcPutA is “RcPutA, EcRHH–RcPutA and EcPutA were incubated with E. coli polar lipid vesicles”; on RcPutA, “In the presence of proline, RcPutA and EcRHH–RcPutA significantly partition into the lipid fraction”. Also, in the series on EcRHH–RcPutA (PRODH site, 300 μM CoQ1, read-out: Km), the Km was determined as 5300 ± 900 µM.

The stoichiometry N is a count of units in the complex or per binding partner. On to “EcRHH–RcPutA chimaera (RHH domain of Escherichia coli PutA fused to the N-terminus of Rhodobacter capsulatus PutA) (from UniProt P09546 1-52) (enzyme)”, for which the stoichiometry N in series [1] and in series [2] was 2 throughout.

Usually Kd stands for the free concentration of one partner at which half of the binding sites on the other are occupied at equilibrium, for simple one-to-one binding. Consider put control DNA (420 bp), for which the Kd in series [3] was 58 nM.
